Measurements taken from the NIST ThermoML archive (doi:10.1016/j.jct.2004.10.011).
± gives the expanded uncertainty stated by the source.

Test: xn = mol fraction of the nth substance listed
Settings: Liquid, Vibrating tube method, x1 = 1

## Cc1ccccc1 [toluene] + CCC(=O)c1ccccc1
298.15 K, 100 kPa
  mass density: 862.1 ± 0.26 kg/m3
298.15 K, 2130 kPa
  mass density: 863.6 ± 0.27 kg/m3
298.15 K, 4150 kPa
  mass density: 865.2 ± 0.27 kg/m3
298.15 K, 6180 kPa
  mass density: 866.7 ± 0.27 kg/m3
298.15 K, 8210 kPa
  mass density: 868.2 ± 0.27 kg/m3
298.15 K, 10230 kPa
  mass density: 869.6 ± 0.28 kg/m3
298.15 K, 11250 kPa
  mass density: 870.4 ± 0.28 kg/m3
298.15 K, 12260 kPa
  mass density: 871.1 ± 0.28 kg/m3
298.15 K, 14290 kPa
  mass density: 872.5 ± 0.28 kg/m3
298.15 K, 16310 kPa
  mass density: 873.9 ± 0.29 kg/m3
298.15 K, 18340 kPa
  mass density: 875.3 ± 0.29 kg/m3
298.15 K, 20370 kPa
  mass density: 876.7 ± 0.29 kg/m3
298.15 K, 22390 kPa
  mass density: 878 ± 0.29 kg/m3
298.15 K, 24420 kPa
  mass density: 879.3 ± 0.3 kg/m3
298.15 K, 26450 kPa
  mass density: 880.6 ± 0.3 kg/m3
298.15 K, 28470 kPa
  mass density: 881.9 ± 0.31 kg/m3
298.15 K, 29490 kPa
  mass density: 882.5 ± 0.31 kg/m3
298.15 K, 30500 kPa
  mass density: 883.2 ± 0.31 kg/m3
298.15 K, 32530 kPa
  mass density: 884.4 ± 0.31 kg/m3
298.15 K, 34550 kPa
  mass density: 885.6 ± 0.32 kg/m3
298.15 K, 36580 kPa
  mass density: 886.8 ± 0.32 kg/m3
298.15 K, 38600 kPa
  mass density: 888 ± 0.32 kg/m3
298.15 K, 39620 kPa
  mass density: 888.6 ± 0.33 kg/m3
308.15 K, 100 kPa
  mass density: 853 ± 0.27 kg/m3
308.15 K, 2130 kPa
  mass density: 854.5 ± 0.27 kg/m3
308.15 K, 4150 kPa
  mass density: 856.2 ± 0.28 kg/m3
308.15 K, 6180 kPa
  mass density: 857.8 ± 0.28 kg/m3
308.15 K, 8210 kPa
  mass density: 859.3 ± 0.28 kg/m3
308.15 K, 10230 kPa
  mass density: 860.9 ± 0.29 kg/m3
308.15 K, 11250 kPa
  mass density: 861.7 ± 0.29 kg/m3
308.15 K, 12260 kPa
  mass density: 862.4 ± 0.29 kg/m3
308.15 K, 14290 kPa
  mass density: 863.9 ± 0.29 kg/m3
308.15 K, 16310 kPa
  mass density: 865.4 ± 0.29 kg/m3
308.15 K, 18340 kPa
  mass density: 866.8 ± 0.3 kg/m3
308.15 K, 20370 kPa
  mass density: 868.2 ± 0.3 kg/m3
308.15 K, 22390 kPa
  mass density: 869.6 ± 0.3 kg/m3
308.15 K, 24420 kPa
  mass density: 871 ± 0.31 kg/m3
308.15 K, 26450 kPa
  mass density: 872.4 ± 0.31 kg/m3
308.15 K, 28470 kPa
  mass density: 873.8 ± 0.32 kg/m3
308.15 K, 29490 kPa
  mass density: 874.4 ± 0.31 kg/m3
308.15 K, 30500 kPa
  mass density: 875 ± 0.32 kg/m3
308.15 K, 32530 kPa
  mass density: 876.3 ± 0.32 kg/m3
308.15 K, 34550 kPa
  mass density: 877.6 ± 0.33 kg/m3
308.15 K, 36580 kPa
  mass density: 878.9 ± 0.33 kg/m3
308.15 K, 38600 kPa
  mass density: 880.1 ± 0.33 kg/m3
308.15 K, 39620 kPa
  mass density: 880.7 ± 0.35 kg/m3
318.15 K, 100 kPa
  mass density: 843.8 ± 0.29 kg/m3
318.15 K, 2130 kPa
  mass density: 845.6 ± 0.28 kg/m3
318.15 K, 4150 kPa
  mass density: 847.3 ± 0.29 kg/m3
318.15 K, 6180 kPa
  mass density: 849 ± 0.29 kg/m3
318.15 K, 8210 kPa
  mass density: 850.6 ± 0.29 kg/m3
318.15 K, 10230 kPa
  mass density: 852.3 ± 0.29 kg/m3
318.15 K, 11250 kPa
  mass density: 853.1 ± 0.29 kg/m3
318.15 K, 12260 kPa
  mass density: 853.9 ± 0.29 kg/m3
318.15 K, 14290 kPa
  mass density: 855.4 ± 0.3 kg/m3
318.15 K, 16310 kPa
  mass density: 857 ± 0.3 kg/m3
318.15 K, 18340 kPa
  mass density: 858.5 ± 0.3 kg/m3
318.15 K, 20370 kPa
  mass density: 860 ± 0.31 kg/m3
318.15 K, 22390 kPa
  mass density: 861.5 ± 0.31 kg/m3
318.15 K, 24420 kPa
  mass density: 862.9 ± 0.32 kg/m3
318.15 K, 26450 kPa
  mass density: 864.4 ± 0.32 kg/m3
318.15 K, 28470 kPa
  mass density: 865.8 ± 0.33 kg/m3
318.15 K, 29490 kPa
  mass density: 866.5 ± 0.33 kg/m3
318.15 K, 30500 kPa
  mass density: 867.2 ± 0.33 kg/m3
318.15 K, 32530 kPa
  mass density: 868.5 ± 0.33 kg/m3
318.15 K, 34550 kPa
  mass density: 869.9 ± 0.34 kg/m3
318.15 K, 36580 kPa
  mass density: 871.2 ± 0.34 kg/m3
318.15 K, 38600 kPa
  mass density: 872.5 ± 0.35 kg/m3
318.15 K, 39620 kPa
  mass density: 873.2 ± 0.35 kg/m3
328.15 K, 100 kPa
  mass density: 834.5 ± 0.3 kg/m3
328.15 K, 2130 kPa
  mass density: 836.5 ± 0.29 kg/m3
328.15 K, 4150 kPa
  mass density: 838.3 ± 0.29 kg/m3
328.15 K, 6180 kPa
  mass density: 840.1 ± 0.29 kg/m3
328.15 K, 8210 kPa
  mass density: 841.8 ± 0.3 kg/m3
328.15 K, 10230 kPa
  mass density: 843.5 ± 0.3 kg/m3
328.15 K, 11250 kPa
  mass density: 844.4 ± 0.3 kg/m3
328.15 K, 12260 kPa
  mass density: 845.2 ± 0.3 kg/m3
328.15 K, 14290 kPa
  mass density: 846.9 ± 0.31 kg/m3
328.15 K, 16310 kPa
  mass density: 848.6 ± 0.31 kg/m3
328.15 K, 18340 kPa
  mass density: 850.1 ± 0.31 kg/m3
328.15 K, 20370 kPa
  mass density: 851.7 ± 0.32 kg/m3
328.15 K, 22390 kPa
  mass density: 853.3 ± 0.32 kg/m3
328.15 K, 24420 kPa
  mass density: 854.8 ± 0.33 kg/m3
328.15 K, 26450 kPa
  mass density: 856.3 ± 0.33 kg/m3
328.15 K, 28470 kPa
  mass density: 857.8 ± 0.34 kg/m3
328.15 K, 29490 kPa
  mass density: 858.5 ± 0.34 kg/m3
328.15 K, 30500 kPa
  mass density: 859.3 ± 0.34 kg/m3
328.15 K, 32530 kPa
  mass density: 860.7 ± 0.34 kg/m3
328.15 K, 34550 kPa
  mass density: 862.1 ± 0.35 kg/m3
328.15 K, 36580 kPa
  mass density: 863.5 ± 0.35 kg/m3
328.15 K, 38600 kPa
  mass density: 864.9 ± 0.36 kg/m3
328.15 K, 39620 kPa
  mass density: 865.5 ± 0.35 kg/m3
